{"source": "paper PMC8795149", "about": "“Characterization of a novel non-steroidal glucocorticoid receptor agonist optimized for topical treatment” (Scientific Reports, 2022)", "key": {"[1]": {"assay": "Stability in whole blood (minipig)", "assay_type": "in vitro ADME", "conditions": "0.1 µM, 37 °C", "method": "(§1) Compounds were incubated in diluted fresh rat, dog, minipig or human whole blood (heparin stabilized, 50% blood and 50% phosphate buffer with 1% bovine serum albumin) for 120 min at 0.1 µM, at 37 °C and the half-lives were determined. Samples were taken at 0, 15, 30, 60 and 120 min, and reactions were terminated by addition of acetonitrile containing analytical internal standard (IS). Test compound depletion was determined using time-of-flight mass spectrometry in positive ion mode (TOF–MS; AB Sciex API5600). Elimination rate constants (k) were calculated from peak areas and the half-lives was determined (t½ = ln2/k)."}, "[2]": {"assay": "Hepatocyte stability (human)", "assay_type": "in vitro ADME", "conditions": "predicted hepatic clearance, well stirred model", "method": "(§2) Compounds (1.0 µM) were incubated in duplicates with rat, dog, minipig or human hepatocytes (1.0 million cells/mL) in phosphate buffer, in 96-well plates for 120 min (37 °C). Reactions were stopped by addition of cold acetonitrile, at 0, 10, 30, 60, and 120 min, and dispensed into cold acetonitrile to stop the reactions. Plates were centrifuged for 30 min and samples were analysed using liquid chromatography coupled to a time-of-flight mass spectrometer. Compound depletion over time was used to estimate the elimination rate constant, from which the apparent intrinsic clearance (CLapp), and half-life (t½), were calculated."}, "[3]": {"assay": "Stability in whole blood (human)", "assay_type": "in vitro ADME", "conditions": "0.1 µM, 37 °C", "method": "Anonymized human blood samples were obtained from healthy volunteer donors upon informed written consent and in accordance with national legislation.\nas §1"}, "[4]": {"tested_on": "minipig skin", "assay": "Local tolerance study in minipigs (skin atrophy)", "assay_type": "in vivo", "conditions": "for Reduction in epidermal thickness: 4 weeks, vs untreated and vehicle controls; for Discoloration of application sites: 4 weeks topical", "method": "5 male Göttingen SPF minipigs (5–7 months old; body weight 12–15 kg) were obtained from Ellegaard Göttingen Minipigs A/S, Dalmose, Denmark.\n(§3) Each animal was treated for 6 h daily over 28 days with 25 µL of the following topical formulations on an application area of 2.5 cm × 2.5 cm: Vehicle (transcutol:acetone (1:9) with 10% hydroxy-propyl-cellulose); Dermovate cream (CP 0.05%), CP 0.05% in vehicle; Betnovate cream (BMV 0.1%); BMV 0.1% in vehicle; LEO 134310 2% in vehicle. One test field on each animal remained untreated.\nFormulations were spread uniformly over the indicated clipped area and covered with porous gauze dressing. At the end of each exposure period all application site as well as the untreated area were rinsed with a mild soap (Abena Mild cream soap, Abena A/S, Denmark) in water and dried with a paper towel.\nSkin biopsies were taken from anaesthetized animals 24 h after the last treatment. Samples for histopathological examination were fixed in phosphate buffered neutral 4% formaldehyde and stained with H&E. Mean arithmetic epidermal thickness was determined by measuring epidermal area, excluding stratum corneum, and dividing this area with the length of the epidermis. All measurements were performed on H&E stained and scanned slides using the Visiopharm software."}, "[5]": {"assay": "Hepatocyte stability (minipig)", "assay_type": "in vitro ADME", "conditions": "predicted hepatic clearance, well stirred model", "method": "as §2"}, "[6]": {"tested_on": "LPS-induced TNF-alpha release in PBMCs", "assay": "TNF-alpha inhibition assay, pig PBMCs", "assay_type": "cell-based", "conditions": "for EC50: geometric mean", "method": "PMBCs were isolated from human buffy coats or animal whole blood (EDTA-treated). Buffy coats from anonymized healthy adult blood donors were obtained from the Blood Bank of the National University Hospital Copenhagen in accordance with national legislation. Whole blood from mice (obtained from Charles River) was sampled at the animal facility at LEO Pharma and whole blood from pigs was sourced from ScanTox. Test compounds and PBMCs were incubated with 1 µg/ml LPS (Sigma) overnight at 37 °C in HEPES and Glutamax-containing RPMI medium supplemented with either 0.5% human serum albumin (human PBMCs) or 10% fetal bovine serum (mouse and pig PBMCs) and penicillin/streptomycin. TNF-alpha was measured using AlphaLISA (Perkin Elmer).\nIC50 of test compounds was determined by 10-point titrations in duplicates. IC50 values and other parameters were calculated by sigmoidal curve fitting in Assay Explorer."}, "[7]": {"assay": "Predicted clearance and half-life in man by allometric scaling of clearance in dogs", "design": "species or system human", "excerpt": "To evaluate allometric scaling, actual clearance in dog and man were extracted from the literature for 6 ester drugs[27]–[38]."}, "[8]": {"assay": "In vivo pharmacokinetics in rat, i.v.", "method": "The pharmacokinetic profile of LEO 134310 was determined in rat (male Sprague Dawley) and dog (female Beagle) after intravenous (i.v.) injection at 1 mg/kg. LEO 134310 was administered in isotonic cyclodextrin solution at 0.5 mg/mL (0.1% Citrate buffer pH 4, 20% hydroxy-propyl-β-cyclodextrin in 0.2% NaCl). The i.v. dose was given as a bolus in rats and as a slow injection over 2 min in dogs. The dosing volume was 2 mL/kg. Blood was immediately diluted after sampling in an inhibitory cocktail containing acetylcholinesterase inhibitor Dichlorvos [1 mg/mL in an 8 mg/mL K2EDTA solution in phosphate buffer (PBS)] and samples were stored at − 80 °C until analysis. Samples were analyzed by LC–MS/MS using an API 5500/API 6500 QTRAP mass spectrometer. Pharmacokinetic parameters were derived from a non-compartment model in Phoenix64 (Pharsight, Certara)."}, "[9]": {"tested_on": "FKBP5 mRNA (GR target engagement)", "assay": "Minipig skin FKBP5 gene expression after 4 weeks topical treatment", "assay_type": "in vivo", "conditions": "minipigs, LEO 134310 2%, CP 0.05%, BMV 0.1%", "method": "as §3\nRNA was extracted from the biopsies and qPCR was performed using customized TaqMan gene expression assays for FKBP5 and TBP (reference gene)."}, "[10]": {"tested_on": "TPA-induced skin inflammation", "assay": "TPA study in mice, CP applied on the non-inflamed ear", "assay_type": "in vivo, mouse", "conditions": "CP applied topically on the non-inflamed ear, tested dose range 0.03–3 µg/ear", "method": "Figure S6. Effect of topically applied CP on TPA induced ear biopsy weight in mice (upper panel). Treatment scheme can be seen in the lower panel. Ear oedema was induced by TPA on the left ear on day 1, 3, 5, 8 and 10 and CP was topically administered daily on either left or right ear on day 8 to 11. The left ear biopsy weight was measured on day 11. Significant effect was seen also when CP was administered on the right ear at the 2 highest doses, indicating contribution to the local effect, by systemic exposure"}, "[11]": {"conditions": "CP 0.05%, BMV 0.1%, 6 h daily semi-occlusion"}}, "note": "Where “and” joins values, the source holds several entries; their conditions need not be identical. Equal values may be shown once."}
{"smiles": "C[C@H](NC(=O)[C@H]1CCCO1)[C@H](Oc1ccc(C(=O)O[C@H]2CCCN(C(=O)[C@H]3COC(=O)C3)C2)cc1)c1ccc(C2CC2)cc1", "note": "[LEO 134310]", "values": [{"measurement": "In vitro (blood) half-life", "setting": "[1]", "value": "3.8 (n = 1) min"}, {"measurement": "In vitro (hepatocytes) CLH", "setting": "[2]", "value": "> 18 (n = 1) mL/min/kg"}, {"measurement": "In vitro (blood) half-life", "setting": "[3]", "value": "6 min and 4.4 ± 2.2 (n = 4) min"}, {"measurement": "Reduction in epidermal thickness", "setting": "[4]; LEO 134310 2%, 6 h daily", "value": "did not result in any significant reduction in epidermal thickness"}, {"measurement": "In vitro (hepatocytes) CLH", "setting": "[5]", "value": "> 35 (n = 1) mL/min/kg"}, {"measurement": "Inhibition of LPS-induced TNF-alpha release Emax", "setting": "[6]", "value": 96, "unit": "%"}, {"measurement": "EC50", "setting": "[6]", "value": 3.2, "unit": "nM"}, {"measurement": "Predicted clearance in man", "setting": "[7]; allometric scaling of clearance in dogs, scaling factor 0.75", "value": 300, "unit": "mL/min/kg"}, {"measurement": "Predicted half-life in man", "setting": "[7]; corresponding to predicted clearance", "value": "< 5", "unit": "min"}, {"measurement": "In vivo clearance relative to liver blood flow", "setting": "[8]", "value": 5, "unit": "fold"}, {"measurement": "In vivo clearance", "setting": "[8]; i.v. 1 mg/kg", "value": "360 ± 85 (n = 3) mL/min/kg"}, {"measurement": "In vivo terminal half-life", "setting": "[8]; i.v. 1 mg/kg", "value": "190 ± 171 (n = 3) min"}]}
{"smiles": "CCC(=O)O[C@]1(C(=O)CCl)[C@@H](C)C[C@H]2[C@@H]3CCC4=CC(=O)C=C[C@]4(C)[C@@]3(F)[C@@H](O)C[C@@]21C", "note": "[CP, Clobetasol Propionate]", "values": [{"measurement": "Discoloration of application sites", "setting": "[4]", "value": "notable discoloration was observed in most application sites"}, {"measurement": "Reduction in epidermal thickness", "setting": "[4]; [11]", "value": "30–40%"}, {"measurement": "FKBP5 gene expression induced in skin", "setting": "[9]", "value": "higher levels of FKBP5 gene expression"}, {"measurement": "Emax", "setting": "[6]; Sus scrofa, PBMC", "value": 95, "unit": "%"}, {"measurement": "EC50", "setting": "[6]; Sus scrofa, PBMC", "value": 0.38, "unit": "nM"}, {"measurement": "Dose from which significant anti-inflammatory effect due to systemic exposure was seen", "setting": "[10]", "value": "≥ 1", "unit": "µg/ear"}]}
{"smiles": "CCCCC(=O)O[C@]1(C(=O)CO)[C@@H](C)C[C@H]2[C@@H]3CCC4=CC(=O)C=C[C@]4(C)[C@@]3(F)[C@@H](O)C[C@@]21C", "note": "[BMV, Betamethasone Valerate]", "values": [{"measurement": "Discoloration of application sites", "setting": "[4]", "value": "notable discoloration was observed in most application sites"}, {"measurement": "Reduction in epidermal thickness", "setting": "[4]; [11]", "value": "30–40%"}, {"measurement": "Emax", "setting": "[6]; Sus scrofa, PBMC", "value": 99, "unit": "%"}, {"measurement": "EC50", "setting": "[6]; Sus scrofa, PBMC", "value": 1.5, "unit": "nM"}]}
